Where two headings read alike, the source gives them in different places. Where only a bound is given, the exact number is not on record here.

The assay has as its system IL-1β production in PMA-differentiated THP-1 cells. The assay can be described thus: IL-1β production in PMA-differentiated THP-1 cells stimulated with gramicidin (hTHP-1 assay containing 2% fetal bovine serum). The format is cell-based, human. The settings on record: 2% fetal bovine serum, read-out: hTHP-1 IC50 (Average IC50 of compounds in hTHP-1 assay). As to the method:
Procedure 1: IL-1β Production in PMA-Differentiated THP-1 Cells Stimulated with Gramicidin.
THP-1 cells were purchased from the American Type Culture Collection and sub-cultured according to instructions from the supplier. Cells were cultured in complete RPMI 1640 (containing 10% heat inactivated FBS, penicillin (100 units/ml) and streptomycin (100 μg/ml)), and maintained in log phase prior to experimental setup. Prior to the experiment, compounds were dissolved in dimethyl sulfoxide (DMSO) to generate a 30 mM stock. The compound stock was first pre-diluted in DMSO to 3, 0.34, 0.042 and 0.0083 mM intermediate concentrations and subsequently spotted using Echo550 liquid handler into an empty 384-well assay plate to achieve desired final concentration (e.g. 100, 33, 11, 3.7, 1.2, 0.41, 0.14, 0.046, 0.015, 0.0051, 0.0017 μM). DMSO was backfilled in the plate to achieve a final DMSO assay concentration of 0.37%. The plate was then sealed and stored at room temperature until required.
THP-1 cells were treated with PMA (Phorbol 12-myristate 13-acetate) (20 ng/ml) for 16-18 hours. On the day of the experiment the media was removed and adherent cells were detached with trypsin for 5 minutes. Cells were then harvested, washed with complete RPMI 1640, spun down, and resuspended in RPMI 1640 (containing 2% heat inactivated FBS, penicillin (100 units/ml) and streptomycin (100 μg/ml). The cells were plated in the 384-well assay plate containing the spotted compounds at a density of 50,000 cells/well (final assay volume 50 μl). Cells were incubated with compounds for 1 hour and then stimulated with gramicidin (5 μM) (Enzo) for 2 hours. Plates were then centrifuged at 340 g for 5 min. Cell free supernatant (40 μL) was collected using a 96-channel PlateMaster (Gilson) and the production of IL-1β was evaluated by HTRF (cisbio). The plates were incubated for 18 h at 4° C. and read using the preset HTRF program (donor emission at 620 nm, acceptor emission at 668 nm) of the SpectraMax i3x spectrophotometer (Molecular Devices, software SoftMax 6). A vehicle only control and a dose titration of CRID3 (100-0.0017 μM) were run concurrently with each experiment.
Procedure 2: IL-1β Production in PMA-Differentiated THP-1 Cells Stimulated with Gramicidin.
THP-1 cells were purchased from the American Type Culture Collection and sub-cultured according to instructions from the supplier. Prior to experiments, cells were cultured in complete RPMI 1640 (containing 10% heat inactivated FBS, penicillin (100 units/ml) and streptomycin (100 μg/ml)), and maintained in log phase prior to experimental setup. Prior to the experiment THP-1 were treated with PMA (Phorbol 12-myristate 13-acetate) (20 ng/ml) for 16-18 hours. Compounds were dissolved in dimethyl sulfoxide (DMSO) to generate a 30 mM stock. On the day of the experiment the media was removed and adherent cells were detached with trypsin for 5 minutes. Cells were then harvested, washed with complete RPMI 1640, spun down, resuspended in RPMI 1640 (containing 2% heat inactivated FBS, penicillin (100 units/ml) and streptomycin (100 μg/ml). The cells were plated in a 384-well plate at a density of 50,000 cells/well (final assay volume 50 μl). Compounds were first dissolved in assay medium to obtain a 5× top concentration of 500 μM. 10 step dilutions (1:3) were then undertaken in assay medium containing 1.67% DMSO. 5× compound solutions were added to the culture medium to achieve desired final concentration (e.g. 100, 33, 11, 3.7, 1.2, 0.41, 0.14, 0.046, 0.015, 0.0051, 0.0017 μM). Final DMSO concentration was at 0.37%. Cells were incubated with compounds for 1 hour and then stimulated with gramicidin (5 μM) (Enzo) for 2 hours. Plates were then centrifuged at 340 g for 5 min. Cell free supernatant (40 μL) was collected using a 96-channel PlateMaster (Gilson) and the production of IL-1β was evaluated by HTRF (cisbio). A vehicle only control and a dose titration of CRID3 (100-0.0017 μM) were run concurrently with each experiment. […]

Where [1] appears, read: Homo sapiens, THP-1, Table B2, class symbols.
Setting [2] is: Homo sapiens, THP-1, Table B1, class symbols.

By IC50 is commonly meant the concentration that inhibits the measured activity by half. In the case of `CC(C)c1cc(C#N)c(F)c(C(C)C)c1CC(=O)N=S(N)(=O)c1sc(C(C)(C)O)nc1CO` (racemic) [Example 352, (S) and (R)—N-(amino(4-(hydroxymethyl)-2-(2-hydroxypropan-2-yl)thiazol-5-yl)(oxo)-λ^6-sulfaneylidene)-2-(4-cyano-3-fluoro-2,6-diisopropylphenyl)acetamide], under “Table B2, class symbols”, the 50% inhibitory concentration (IC50) is 200 to 1000 nM.
On to `CC(C)c1cc2c(c(C(C)C)c1CC(=O)N=S(N)(=O)c1cccc(C(C)(C)O)c1)COC2` (single isomer, unassigned) [Example 304, (S) or (R)-N-(amino(3-(2-hydroxypropan-2-yl)phenyl)(oxo)-λ^6-sulfaneylidene)-2-(4,6-diisopropyl-1,3-dihydroisobenzofuran-5-yl)acetamide], for which the IC50 (Homo sapiens, THP-1, Table B1, cells printed as numeric bound) is more than 30000 nM.
`CC(C)c1cc2c(c(C(C)C)c1CC(=O)N=[S@](=O)(NC#N)c1cnc(C(C)(C)O)s1)COC2=O` [Example 361, (S)-N-(cyanamido(2-(2-hydroxypropan-2-yl)thiazol-5-yl) (oxo)-λ^6-sulfaneylidene)-2-(4,6-diisopropyl-1-oxo-1,3-dihydroisobenzofuran-5-yl)acetamide]: the IC50 under setting [1] is 1000 to 5000 nM.
As for `CC(C)c1cc(C(F)F)cc(C(C)C)c1CC(=O)N=S(N)(=O)c1sc(C(C)(C)O)cc1F` (single isomer, unassigned) [Example 80, (S)- or (R)-2-(4-(difIuoromethyl)-2,6-diisopropylphenyl)-N-(3-fluoro-5-(2-hydroxypropan-2-yl)thiophen-2-ylsulfonimidoyl)acetamide], the IC50 (Table B1, class symbols) is 8 to 40 nM.
On the same count and under the same terms, the figure for `CC(C)c1cc(F)c(F)c(C(C)C)c1CC(=O)N=S(N)(=O)c1nc(C(C)(C)O)cs1` (single isomer, unassigned) [Example 177, (R) or (S)-N-(amino(4-(2-hydroxypropan-2-yl)thiazol-2-yl)(oxo)-λ^6-sulfaneylidene)-2-(3,4-difluoro-2,6-diisopropylphenyl) acetamide] is 40 to 200 nM.
Same read-out and setting: the figure for `CC(C)c1c(F)c(C#N)cc(C2CC2)c1CC(=O)N=S(N)(=O)c1sc(C(C)(C)O)cc1F` (single isomer, unassigned) [Example 54, (S)- or (R)-2-(4-cyano-6-cyclopropyl-3-fluoro-2-isopropylphenyl)-N-(3-fluoro-5-(2-hydroxypropan-2-yl)thiophen-2-ylsulfonimidoyl)acetamide] is 8 to 40 nM.
Same read-out and setting: under `CC(C)c1cc(C(F)F)cc(C(C)C)c1CC(=O)N=S(N)(=O)c1ccc(CN(C)C)cc1F` (single isomer, unassigned) [Example 215, (S) or (R)-N-(amino(4-((dimethylamino)methyl)-2-fluorophenyl) (oxo)-λ^6-sulfaneylidene)-2-(4-(difluoromethyl)-2,6-diisopropylphenyl) acetamide] stands 1000 to 5000 nM; under `CC(C)c1cc(C#N)c(F)c(C(C)C)c1CC(=O)N=S(N)(=O)c1cnc(C(C)(O)CO)s1` (single isomer, unassigned) [Example 336, (R, R) or (S, R)-N-(amino(2-(1,2-dihydroxypropan-2-yl)thiazol-5-yl)(oxo)-λ^6-sulfaneylidene)-2-(4-cyano-3-fluoro-2,6-diisopropylphenyl) acetamide], 200 to 1000 nM.
Turning to `CC(C)c1nc(-c2cccc(C(F)(F)F)c2)c(F)c(C(C)C)c1CC(=O)N=[S@@](N)(=O)c1cnc(C(C)(C)O)s1` [compound 89, (R)-N-(amino(2-(2-hydroxypropan-2-yl)thiazol-5-yl)(oxo)-λ^6-sulfanylidene)-2-(5-fluoro-2,4-diisopropyl-6-(3-(trifluoromethyl)phenyl)pyridin-3-yl)acetamide], under setting [2], the 50% inhibitory concentration (IC50) fell in the range of 200 to 1000 nM.
On to `COCc1cc(C(C)C)c(CC(=O)N=S(N)(=O)c2ncc(C(C)(C)O)s2)c(C(C)C)c1` (centres unmarked) [Example 111, N-(amino(5-(2-hydroxypropan-2-yl)thiazol-2-yl)(oxo)-λ^6-sulfaneylidene)-2-(2,6-diisopropyl-4-(methoxymethyl)phenyl) acetamide], for which, under setting [2], the IC50 was in the range of 40 to 200 nM.
`CC(C)c1cc(C#N)c(F)c(C(C)C)c1CC(=O)N=S(=O)(NC(N)=O)c1cnc([C@](C)(O)CO)s1` (some centres unmarked) [compound 355]: the IC50 (Homo sapiens, THP-1, Table B2, cells printed as numeric bound) is more than 30000 nM.
In the case of `Cc1sc(S(N)(=O)=NC(=O)Cc2c(C(C)C)ccc(F)c2C(C)C)cc1C(C)(C)O` (single isomer, unassigned) [Example 174, (S) or (R)-N-(amino(4-(2-hydroxypropan-2-yl)-5-methylthiophen-2-yl)(oxo)-λ^6-sulfaneylidene)-2-(3-fluoro-2,6-diisopropylphenyl) acetamide], under “Table B1, class symbols”, the half-inhibitory concentration (IC50) fell in the range of 5000 to 30000 nM.
As for `CC(C)c1cc(C#N)cc(C(C)C)c1CC(=O)N=[S@@](=O)(NC#N)c1ncc(C(C)(C)O)s1` [Example 364, (R)-N-(cyanamido(5-(2-hydroxypropan-2-yl)thiazol-2-yl) (oxo)-λ^6-sulfaneylidene)-2-(4-cyano-2,6-diisopropylphenyl) acetamide], the half-inhibitory concentration (IC50) under setting [1] is 200 to 1000 nM.
With `CC(C)c1cc(-c2ccc3c(c2)CCOC3)cc(C(C)C)c1CC(=O)N=S(N)(=O)c1sc(C(C)(C)O)nc1CO` (single isomer, unassigned) [Example 271, (R) or (S)-N-(amino(4-(hydroxymethyl)-2-(2-hydroxypropan-2-yl)thiazol-5-yl)(oxo)-λ^6-sulfaneylidene)-2-(4-(isochroman-6-yl)-2,6-diisopropylphenyl) acetamide], the IC50 (Table B1, class symbols) was 200 to 1000 nM.
Still for that read-out and setting: the figure for `COCc1cc(C(C)C)c(CC(=O)N=S(N)(=O)c2cc(C(C)(C)O)cs2)c(C(C)C)c1` (single isomer, unassigned) [Example 157, (R) or (S)-N-(amino(4-(2-hydroxypropan-2-yl)thiophen-2-yl)(oxo)-λ^6-sulfaneylidene)-2-(2,6-diisopropyl-4-(methoxymethyl)phenyl)acetamide] is 8 to 40 nM.
On the same count and under the same terms, under `CC(C)c1cc(C#N)c(F)c(C(C)C)c1CC(=O)N=S(N)(=O)c1cnc(C(C)(O)CO)s1` (single isomer, unassigned) [Example 334, (S, S) or (R, S)-N-(amino(2-(1,2-dihydroxypropan-2-yl)thiazol-5-yl)(oxo)-λ^6-sulfaneylidene)-2-(4-cyano-3-fluoro-2,6-diisopropylphenyl) acetamide] stands 5000 to 30000 nM.
As to `CCc1c2c(cc(C(C)C)c1CC(=O)N=S(N)(=O)c1sc(C(C)(C)O)cc1F)COC2` (single isomer, unassigned) [Example 299, (S) or (R)-N-(amino (3-fluoro-5-(2-hydroxypropan-2-yl)thiophen-2-yl)(oxo)-λ^6-sulfaneylidene)-2-(4-ethyl-6-isopropyl-1,3-dihydroisobenzofuran-5-yl)acetamide], the IC50 (Table B1, class symbols) is 5000 to 30000 nM.

(Values after patent US20230059136A1, “THE COMPOUNDS AND COMPOSITIONS FOR TREATING CONDITIONS ASSOCIATED WITH NLRP ACTIVITY” (Novartis AG, priority 2018, published 2023).)
